Type in all cases: biochemical
The target of assay [1] is T1, recombinant human VAP-1 (Homo sapiens, UniProt Q16853).
T1 construct: purchased R&D systems
T1 sequence (Q16853 1-763): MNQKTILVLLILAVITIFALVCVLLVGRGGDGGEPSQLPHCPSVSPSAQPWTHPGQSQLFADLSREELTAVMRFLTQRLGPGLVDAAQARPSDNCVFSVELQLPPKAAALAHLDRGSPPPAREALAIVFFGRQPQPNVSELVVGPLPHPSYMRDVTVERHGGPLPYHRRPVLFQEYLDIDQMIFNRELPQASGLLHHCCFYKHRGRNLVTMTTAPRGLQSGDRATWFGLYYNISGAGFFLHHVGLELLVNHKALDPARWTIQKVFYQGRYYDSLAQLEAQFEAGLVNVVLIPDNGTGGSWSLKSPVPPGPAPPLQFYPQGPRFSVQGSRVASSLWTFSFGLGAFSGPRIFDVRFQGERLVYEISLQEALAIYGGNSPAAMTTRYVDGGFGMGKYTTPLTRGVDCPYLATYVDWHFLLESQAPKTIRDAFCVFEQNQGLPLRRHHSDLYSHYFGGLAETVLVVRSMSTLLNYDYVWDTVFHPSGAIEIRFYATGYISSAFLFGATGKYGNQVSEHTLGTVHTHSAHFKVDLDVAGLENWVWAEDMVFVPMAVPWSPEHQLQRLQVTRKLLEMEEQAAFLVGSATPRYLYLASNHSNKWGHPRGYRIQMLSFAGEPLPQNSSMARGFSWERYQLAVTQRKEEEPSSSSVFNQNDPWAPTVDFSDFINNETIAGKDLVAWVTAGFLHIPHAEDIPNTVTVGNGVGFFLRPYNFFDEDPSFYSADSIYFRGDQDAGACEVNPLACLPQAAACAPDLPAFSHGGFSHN
Kind of assay: Activity on recombinant human VAP-1, HRP-coupled Amplex Red hydrogen peroxide assay. As to conditions: substrate 1 mM benzylamine; compound incubated with enzyme at 37° C. for 30 minutes; pH 7.4; read-out: Inhibitory Activity (IC50, nM) human VAP-1. The method, boiled down: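 H2O2 generation from 1 mM benzylamine was coupled via 1 U/mL HRP to 200 uM Amplex Red; inhibitors, serially diluted 1:3 over 8 points with under 1% final DMSO, had been preincubated 30 min at 37 °C. IC50 from percentage drop in rate.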

Assay [2] has as its target T2, recombinant human MAO-B (monoamine oxidase-B) (Homo sapiens, UniProt P27338).
T2 construct: purchased Sigma-Aldrich
T2 sequence (P27338 1-520): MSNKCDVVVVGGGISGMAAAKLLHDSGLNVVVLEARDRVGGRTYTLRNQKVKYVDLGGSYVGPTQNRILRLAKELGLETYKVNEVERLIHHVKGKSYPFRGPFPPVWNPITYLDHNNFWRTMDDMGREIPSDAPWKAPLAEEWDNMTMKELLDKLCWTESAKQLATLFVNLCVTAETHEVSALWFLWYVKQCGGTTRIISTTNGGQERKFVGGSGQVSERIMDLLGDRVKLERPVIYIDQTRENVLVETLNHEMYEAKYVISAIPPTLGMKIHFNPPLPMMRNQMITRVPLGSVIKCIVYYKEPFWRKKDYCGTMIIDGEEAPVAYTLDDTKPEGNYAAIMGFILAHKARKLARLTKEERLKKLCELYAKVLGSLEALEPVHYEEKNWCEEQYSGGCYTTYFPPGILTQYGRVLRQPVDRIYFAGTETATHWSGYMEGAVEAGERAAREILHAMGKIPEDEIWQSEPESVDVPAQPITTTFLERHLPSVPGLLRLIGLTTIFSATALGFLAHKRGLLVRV
Kind of assay: Activity on recombinant human MAO-B, method similar to the VAP-1 assay. The note with it: substrate 1 mM benzylamine; read-out: Inhibitory Activity (IC50, nM) MAO-B. The method, boiled down: (§1)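 First, serially diluted compounds were incubated with recombinant enzyme in 50 mM sodium phosphate, pH 7.4, for 30 min at 37° C. Next, Amplex Red (200 uM), HRP (1 U/mL) and tyramine (0.5 mM, MAO-A) or benzylamine (1 mM, MAO-B) were added. Then fluorescence was monitored over 1-2 h and IC50 fitted.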

Assay [3] deals with T3, recombinant human DAO (diamine oxidase) (Homo sapiens, UniProt P19801).
T3 construct: purchased R&D systems
T3 sequence (P19801 20-751): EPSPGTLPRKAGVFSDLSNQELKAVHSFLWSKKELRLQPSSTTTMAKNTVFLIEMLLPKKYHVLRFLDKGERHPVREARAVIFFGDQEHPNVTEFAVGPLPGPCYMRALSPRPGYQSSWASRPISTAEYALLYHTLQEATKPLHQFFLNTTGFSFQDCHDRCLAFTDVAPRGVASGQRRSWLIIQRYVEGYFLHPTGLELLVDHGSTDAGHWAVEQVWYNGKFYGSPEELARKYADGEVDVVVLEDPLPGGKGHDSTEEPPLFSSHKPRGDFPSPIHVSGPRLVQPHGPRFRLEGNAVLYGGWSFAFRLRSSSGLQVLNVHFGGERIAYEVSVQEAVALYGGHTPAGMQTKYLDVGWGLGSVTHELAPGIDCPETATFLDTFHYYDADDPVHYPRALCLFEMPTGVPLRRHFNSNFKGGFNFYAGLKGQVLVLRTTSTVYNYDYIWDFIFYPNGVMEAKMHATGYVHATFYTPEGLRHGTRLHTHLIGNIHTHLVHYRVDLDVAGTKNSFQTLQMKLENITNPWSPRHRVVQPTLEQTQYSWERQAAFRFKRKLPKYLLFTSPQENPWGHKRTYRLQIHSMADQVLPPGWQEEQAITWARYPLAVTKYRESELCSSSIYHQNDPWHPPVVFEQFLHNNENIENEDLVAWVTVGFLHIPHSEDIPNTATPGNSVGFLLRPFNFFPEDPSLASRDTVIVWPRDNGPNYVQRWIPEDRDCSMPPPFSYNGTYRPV
Kind of assay: Activity on recombinant human DAO, method similar to the VAP-1 assay. The note with it: substrate 1 mM putrescine; read-out: Inhibitory Activity (IC50, nM) DAO. The method, boiled down: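 Inhibition of recombinant human diamine oxidase (DAO, R&D systems) was assessed by the same approach as the VAP-1 assay, using 1 mM putrescine as substrate. Hydrogen peroxide formed was detected through an HRP-coupled Amplex Red reaction yielding fluorescent resorufin, read at 544 nm excitation and 590 nm emission. IC50 values came from four-parameter logistic fitting in GraphPad Prism.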

For assay [4], the target named is T4, recombinant human MAO-A (monoamine oxidase-A) (Homo sapiens, UniProt P21397).
T4 construct: purchased Sigma-Aldrich
T4 sequence (P21397 1-527): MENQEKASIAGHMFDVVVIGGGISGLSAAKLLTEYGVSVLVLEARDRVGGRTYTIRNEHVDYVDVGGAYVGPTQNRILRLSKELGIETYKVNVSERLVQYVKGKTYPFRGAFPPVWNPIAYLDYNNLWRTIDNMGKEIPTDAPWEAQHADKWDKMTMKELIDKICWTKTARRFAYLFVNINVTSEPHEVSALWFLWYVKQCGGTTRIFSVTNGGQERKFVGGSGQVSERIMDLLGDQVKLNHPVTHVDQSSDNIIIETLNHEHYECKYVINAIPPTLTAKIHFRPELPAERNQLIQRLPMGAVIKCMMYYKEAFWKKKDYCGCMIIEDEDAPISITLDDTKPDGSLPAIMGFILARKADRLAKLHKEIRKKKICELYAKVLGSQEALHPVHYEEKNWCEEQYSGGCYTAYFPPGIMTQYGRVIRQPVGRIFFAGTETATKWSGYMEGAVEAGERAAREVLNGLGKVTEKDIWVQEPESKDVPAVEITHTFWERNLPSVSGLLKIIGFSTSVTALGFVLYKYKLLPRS
The assay is described as follows: Activity on recombinant human MAO-A, method similar to the VAP-1 assay. As to conditions: substrate 0.5 mM tyramine; read-out: Inhibitory Activity (IC50, nM) MAO-A. Put shortly:
as §1

Structures can show the parent of a compound that is named as a salt. Bounds are passed on as bounds.

Consider `Cc1cc(-c2ccc(Cn3cnn(C/C(=C/F)CN)c3=O)s2)n(C)n1` [Example 158, 2-[(2E)-2-(aminomethyl)-3-fluoroprop-2-en-1-yl]-4-{[5-(1,3-dimethyl-1H-pyrazol-5-yl)thiophen-2-yl]methyl}-2,4-dihydro-3H-1,2,4-triazol-3-one], for which the IC50 is 1.9 nM in assay [1], 430 nM in assay [2], 340 nM in assay [3] and over 100000 nM in assay [4].

In the case of `CCn1cc(-c2ccc3sc(Cn4cnn(C/C(=C/F)CN)c4=O)cc3c2)cn1` [Example 214, 2-[(2E)-2-(aminomethyl)-3-fluoroprop-2-en-1-yl]-4-{[5-(1-ethyl-1H-pyrazol-4-yl)-1-benzothiophen-2-yl]methyl}-2,4-dihydro-3H-1,2,4-triazol-3-one], the IC50 in assay [1] is 1.6 nM; in assay [2], 2200 nM; in assay [3], 1400 nM; in assay [4], over 100000 nM.

Turning to `NC/C(=C\F)Cn1ncn(Cc2ccc(-c3cnn(Cc4ccccc4)c3)s2)c1=O` [Example 151, 2-[(2E)-2-(aminomethyl)-3-fluoroprop-2-en-1-yl]-4-{[5-(1-benzyl-1H-pyrazol-4-yl)thiophen-2-yl]methyl}-2,4-dihydro-3H-1,2,4-triazol-3-one], the IC50 in assay [1] was found to be 2.7 nM; in assay [2] it was 1500 nM; in assay [3], 790 nM; in assay [4] it was 59000 nM.

Turning to `Cc1nn(C)cc1-c1ccc(Cn2cnn(C/C(=C/F)CN)c2=O)s1` [Example 157, 2-[(2E)-2-(aminomethyl)-3-fluoroprop-2-en-1-yl]-4-{[5-(1,3-dimethyl-1H-pyrazol-4-yl)thiophen-2-yl]methyl}-2,4-dihydro-3H-1,2,4-triazol-3-one], the IC50 is 2.6 nM in assay [1], 330 nM in assay [2], 1700 nM in assay [3] and over 100000 nM in assay [4].

For `Cc1c(-c2ccc(Cn3cnn(C/C(=C/F)CN)c3=O)s2)ccc2c1NCCO2` [Example 108, 2-[(E)-2-(aminomethyl)-3-fluoro-allyl]-4-[[5-(5-methyl-3,4-dihydro-2H-1,4-benzoxazin-6-yl)-2-thienyl]methyl]-1,2,4-triazol-3-one], the half-maximal inhibitory concentration (IC50) in assay [1] was 0.8 nM; in assay [2], 3200 nM; in assay [3], 250 nM; in assay [4] it was 21000 nM.

For `COC(=O)c1cccc(-c2ccc(Cn3cnn(C/C(=C/F)CN)c3=O)s2)c1` [Example 11, methyl 3-[5-(1-[(2E)-2-(aminomethyl)-3-fluoroprop-2-en-1-yl]-5-oxo-1,5-dihydro-4H-1,2,4-triazol-4-ylmethyl)thiophen-2-yl]benzoate hydrochloride], the IC50 in assay [1] was 1.8 nM; in assay [2] it was 35 nM; in assay [3], 1100 nM; in assay [4], over 100000 nM.

For `NC/C(=C\F)Cn1ncn(Cc2ccc(-c3ccc(N4CCCCC4)nc3)s2)c1=O` [Example 52, 2-[(2E)-2-(aminomethyl)-3-fluoroprop-2-en-1-yl]-4-(5-[6-(piperidin-1-yl)pyridin-3-yl]thiophen-2-ylmethyl)-2,4-dihydro-3H-1,2,4-triazol-3-one hydrochloride], the IC50 is 0.8 nM in assay [1], 640 nM in assay [2], 170 nM in assay [3] and over 100000 nM in assay [4].

Regarding `CCn1cc(-c2ccc(CCn3cnn(C/C(=C/F)CN)c3=O)s2)cn1` [Example 222, 2-[(2E)-2-(aminomethyl)-3-fluoroprop-2-en-1-yl]-4-{2-[5-(1-ethyl-1H-pyrazol-4-yl)thiophen-2-yl]ethyl}-2,4-dihydro-3H-1,2,4-triazol-3-one], the IC50 was 0.7 nM in assay [1], 38000 nM in assay [2], 890 nM in assay [3] and over 100000 nM in assay [4].

On to `CS(=O)(=O)Nc1ccc(-c2ccc(Cn3cnn(C/C(=C/F)CN)c3=O)s2)cc1` [Example 7, N-4-[5-(1-[(2E)-2-(aminomethyl)-3-fluoroprop-2-en-1-yl]-5-oxo-1,5-dihydro-4H-1,2,4-triazol-4-ylmethyl)thiophen-2-yl]phenylmethansulfonamide hydrochloride], for which the IC50 worked out at 0.4 nM in assay [1], 11000 nM in assay [2], 1000 nM in assay [3] and 35000 nM in assay [4].

Turning to `NC/C(=C\F)Cn1ncn(Cc2ccc(-c3cnc4[nH]ccc4c3)s2)c1=O` [Example 65, 2-[(2E)-2-(aminomethyl)-3-fluoroprop-2-en-1-yl]-4-[5-(1H-pyrrolo[2,3-b]pyridin-5-yl)thiophen-2-yl]methyl-2,4-dihydro-3H-1,2,4-triazol-3-one hydrochloride], the IC50 in assay [1] is 0.7 nM; in assay [2] it was 3400 nM; in assay [3], 1500 nM; in assay [4], over 100000 nM.

Regarding `CN(C)c1cccc(-c2ccc(Cn3cnn(C/C(=C/F)CN)c3=O)s2)c1` [Example 4, 2-[(2E)-2-(aminomethyl)-3-fluoroprop-2-en-1-yl]-4-(5-[3-(dimethylamino)phenyl]thiophen-2-ylmethyl)-2,4-dihydro-3H-1,2,4-triazol-3-one hydrochloride], the half-maximal inhibitory concentration (IC50) in assay [1] amounted to 4.6 nM; in assay [2] it was 50 nM; in assay [3], 9500 nM; in assay [4], 35000 nM.

The IC50 is the concentration at which inhibition is half-maximal.
